# Read-outs that look alike come from different tables or passages of the source.
# Experiments:
# RET (G810S/M918T) = molecular target: T1, RET (G810S/M918T) (Homo sapiens, UniProt P07949, G810S/M918T); assay: Kinase panel inhibition, radiolabeled [γ-33P] ATP (Reaction Biology Corp); type: biochemical; details: ATP 1 µM; for remaining activity at 10 µM: compound at 10 uM; for remaining activity at 30 µM: compound at 30uM
# T1 construct: purchased Reaction Biology Corp
# Procedure: (§1) Using radiolabeled ATP ([γ-33P] ATP), the degree to which the substrate was replaced by a 33P-phosphorylated substrate was measured, and changes in kinase activity were determined from the measurement of the radiolabeled phosphorylated substrate.
# RET-CCDC6 (PTC1) = molecular target: T2, RET-CCDC6 (PTC1) (Homo sapiens, UniProt P07949); assay: as above; type: biochemical; details: ATP 1 µM; for remaining activity at 10 µM: compound at 10 uM; for remaining activity at 30 µM: compound at 30uM
# T2 construct: purchased Reaction Biology Corp
# T2 sequence (P07949 whole entry, looked up): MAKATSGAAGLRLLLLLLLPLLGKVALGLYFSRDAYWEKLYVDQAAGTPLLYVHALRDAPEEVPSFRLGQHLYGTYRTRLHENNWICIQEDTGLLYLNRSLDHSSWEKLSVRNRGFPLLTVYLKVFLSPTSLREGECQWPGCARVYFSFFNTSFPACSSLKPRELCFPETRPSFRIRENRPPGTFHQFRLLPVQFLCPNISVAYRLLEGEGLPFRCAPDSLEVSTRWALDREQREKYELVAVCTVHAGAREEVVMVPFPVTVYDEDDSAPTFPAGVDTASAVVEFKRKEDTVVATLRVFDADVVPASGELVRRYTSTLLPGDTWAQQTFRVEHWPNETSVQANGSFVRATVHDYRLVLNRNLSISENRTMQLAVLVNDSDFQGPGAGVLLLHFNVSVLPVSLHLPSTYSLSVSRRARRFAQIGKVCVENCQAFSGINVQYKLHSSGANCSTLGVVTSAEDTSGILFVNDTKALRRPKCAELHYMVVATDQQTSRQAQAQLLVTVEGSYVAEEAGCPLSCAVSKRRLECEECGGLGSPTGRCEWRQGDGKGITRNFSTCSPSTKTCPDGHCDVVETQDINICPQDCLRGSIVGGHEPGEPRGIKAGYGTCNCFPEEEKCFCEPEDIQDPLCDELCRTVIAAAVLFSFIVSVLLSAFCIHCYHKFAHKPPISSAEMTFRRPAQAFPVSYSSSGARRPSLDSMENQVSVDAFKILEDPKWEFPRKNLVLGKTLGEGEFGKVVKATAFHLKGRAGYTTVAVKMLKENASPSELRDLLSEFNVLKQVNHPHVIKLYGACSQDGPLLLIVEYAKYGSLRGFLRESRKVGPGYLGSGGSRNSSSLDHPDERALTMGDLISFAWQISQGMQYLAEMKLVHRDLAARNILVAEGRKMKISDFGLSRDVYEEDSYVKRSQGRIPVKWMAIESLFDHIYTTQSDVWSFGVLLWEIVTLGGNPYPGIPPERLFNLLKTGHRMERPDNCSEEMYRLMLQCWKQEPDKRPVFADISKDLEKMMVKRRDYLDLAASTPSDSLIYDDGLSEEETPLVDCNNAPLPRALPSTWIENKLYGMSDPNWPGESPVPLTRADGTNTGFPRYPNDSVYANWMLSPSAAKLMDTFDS
# Procedure: as §1
# A-549 = assay: Cell proliferation inhibition, Cell Counting Kit-8, non-small cell lung cancer cell line; type: cell-based; details: A-549 cell line; 72 hours incubation; test concentration not given
# [1] = Data 1, read-out: % Enzyme Activity (relative to DMSO controls) RET (G810S/M918T) Data 1
# [2] = Data 2, read-out: % Enzyme Activity (relative to DMSO controls) RET (G810S/M918T) Data 2
# [3] = Data 1, read-out: % Enzyme Activity (relative to DMSO controls) RET-CCDC6 (PTC1) Data 1
# [4] = Data 2, read-out: % Enzyme Activity (relative to DMSO controls) RET-CCDC6 (PTC1) Data 2
# T1 sequence (P07949 29-1114 G810S/M918T): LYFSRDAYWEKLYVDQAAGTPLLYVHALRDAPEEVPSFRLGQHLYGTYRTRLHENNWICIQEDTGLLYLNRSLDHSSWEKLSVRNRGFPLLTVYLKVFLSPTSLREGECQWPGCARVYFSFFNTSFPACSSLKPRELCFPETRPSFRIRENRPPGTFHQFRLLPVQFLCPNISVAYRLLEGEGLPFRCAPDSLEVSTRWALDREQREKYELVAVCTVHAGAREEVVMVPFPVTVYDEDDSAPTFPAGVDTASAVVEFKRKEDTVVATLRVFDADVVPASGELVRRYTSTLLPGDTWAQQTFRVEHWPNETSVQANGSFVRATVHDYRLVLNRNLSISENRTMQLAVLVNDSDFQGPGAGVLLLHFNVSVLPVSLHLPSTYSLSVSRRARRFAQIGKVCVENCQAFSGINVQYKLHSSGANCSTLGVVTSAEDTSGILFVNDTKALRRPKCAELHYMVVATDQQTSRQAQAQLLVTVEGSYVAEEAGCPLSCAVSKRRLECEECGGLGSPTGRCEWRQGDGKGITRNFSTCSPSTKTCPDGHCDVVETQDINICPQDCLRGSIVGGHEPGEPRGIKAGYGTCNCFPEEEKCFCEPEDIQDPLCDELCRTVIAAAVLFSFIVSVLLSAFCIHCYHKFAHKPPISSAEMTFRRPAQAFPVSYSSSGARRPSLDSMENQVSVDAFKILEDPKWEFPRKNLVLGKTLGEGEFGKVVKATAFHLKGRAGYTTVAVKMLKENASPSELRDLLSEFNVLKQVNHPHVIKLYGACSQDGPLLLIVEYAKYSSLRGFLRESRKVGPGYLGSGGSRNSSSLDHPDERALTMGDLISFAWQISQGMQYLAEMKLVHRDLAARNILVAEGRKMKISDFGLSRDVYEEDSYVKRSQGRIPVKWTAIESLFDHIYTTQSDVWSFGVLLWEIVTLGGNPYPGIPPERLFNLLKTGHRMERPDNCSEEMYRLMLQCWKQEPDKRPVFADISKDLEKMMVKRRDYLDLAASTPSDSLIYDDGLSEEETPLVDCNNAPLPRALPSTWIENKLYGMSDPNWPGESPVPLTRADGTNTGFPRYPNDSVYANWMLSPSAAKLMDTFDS
SMILES,remaining activity at 10 µM (RET (G810S/M918T); [1]),remaining activity at 10 µM (RET (G810S/M918T); [2]),remaining activity at 10 µM (RET-CCDC6 (PTC1); [3]),remaining activity at 10 µM (RET-CCDC6 (PTC1); [4]),Cell Proliferation (% of control) (A-549),remaining activity at 30 µM (RET (G810S/M918T); [1]),remaining activity at 30 µM (RET (G810S/M918T); [2]),remaining activity at 30 µM (RET-CCDC6 (PTC1); [3]),remaining activity at 30 µM (RET-CCDC6 (PTC1); [4])
"CCCNc1cc(-c2ccc(N3CC(Oc4cccc(F)c4)C3)nc2)c2nccnc2c1 [Example 4, 8-(6-(3-(3-fluorophenoxy)azetidin-1-yl)pyridin-3-yl)-N-propylquinoxalin-6-amine]",-0.23%,0.04%,1.11%,1.31%,43.59%,,,,
"CC(C)Nc1cc(-c2ccc(N3CC(Oc4cccc(F)c4)C3)nc2)c2nccnc2c1 [Example 5, 8-(6-(3-(3-fluorophenoxy)azetidin-1-yl)pyridin-3-yl)-N-isopropylquinoxalin-6-amine]",5.96%,6.14%,1.34%,0.72%,36.07%,,,,
"CCCCNc1cc(-c2ccc(N3CC(Oc4cccc(F)c4)C3)nc2)c2nccnc2c1 [Example 6, N-butyl-8-(6-(3-(3-fluorophenoxy)azetidin-1-yl)pyridin-3-yl)quinoxalin-6-amine]",2.18%,2.37%,1.05%,1.32%,68.59%,,,,
"CC(C)CNc1cc(-c2ccc(N3CC(Oc4cccc(F)c4)C3)nc2)c2nccnc2c1 [Example 7, 8-(6-(3-(3-fluorophenoxy)azetidin-1-yl)pyridin-3-yl)-N-isobutylquinoxalin-6-amine]",4.28%,4.26%,0.85%,1.07%,53.57%,,,,
"O=C(Nc1cc(-c2ccc(N3CC(Oc4cccc(F)c4)C3)nc2)c2nccnc2c1)c1ccccn1 [Example 9, N-(8-(6-(3-(3-fluorophenoxy)azetidin-1-yl)pyridin-3-yl)quinoxalin-6-yl)picolinamide]",49.5%,50%,2.81%,3.74%,18.67%,,,,
"CCCNc1cc(-c2ccc(N3CC[C@H](NC(=O)c4ccccc4F)C3)nc2)c2nccnc2c1 [Example 13, (S)-2-fluoro-N-(1-(5-(7-(propylamino)quinoxalin-5-yl)pyridin-2-yl)pyrrolidin-3-yl)benzamide]",-0.06%,-0.31%,0.91%,1.28%,39.32%,,,,
"CC(C)Nc1cc(-c2ccc(N3CC[C@H](NC(=O)c4ccccc4F)C3)nc2)c2nccnc2c1 [Example 14, (S)-2-fluoro-N-(1-(5-(7-(isopropylamino)quinoxalin-5-yl)pyridin-2-yl)pyrrolidin-3-yl)benzamide]",5.08%,4.68%,1.04%,0.72%,47.83%,,,,
"CCCCNc1cc(-c2ccc(N3CC[C@H](NC(=O)c4ccccc4F)C3)nc2)c2nccnc2c1 [Example 15, (S)-N-(1-(5-(7-(butylamino)quinoxalin-5-yl)pyridin-2-yl)pyrrolidin-3-yl)-2-fluorobenzamide]",-0.06%,-0.2%,1.08%,1.1%,51.55%,,,,
"CC(C)CNc1cc(-c2ccc(N3CC[C@H](NC(=O)c4ccccc4F)C3)nc2)c2nccnc2c1 [Example 16, (S)-2-fluoro-N-(1-(5-(7-(isobutylamino)quinoxalin-5-yl)pyridin-2-yl)pyrrolidin-3-yl)benzamide]",3.39%,3.22%,1.21%,1.51%,65.29%,,,,
"O=C(Nc1cc(-c2ccc(N3CC[C@H](NC(=O)c4ccccc4F)C3)nc2)c2nccnc2c1)c1ccco1 [Example 17, (S)-N-(8-(6-(3-(2-fluorobenzamido)pyrrolidin-1-yl)pyridin-3-yl)quinoxalin-6-yl)furan-2-carboxamide]",11.9%,11.9%,1.15%,1.33%,48.96%,,,,
"O=C(Nc1cc(-c2ccc(N3CC[C@H](NC(=O)c4ccccc4F)C3)nc2)c2nccnc2c1)c1ccccn1 [Example 18, (S)-N-(8-(6-(3-(2-fluorobenzamido)pyrrolidin-1-yl)pyridin-3-yl)quinoxalin-6-yl)picolinamide]",24.7%,25.5%,1.9%,2.31%,35.32%,,,,
"Nc1cc(-c2ccc(N3CCOCC3)nc2)c2nccnc2c1 [Example 19, 8-(6-morpholinopyridin-3-yl)quinoxalin-6-amine]",27.3%,26.3%,5.69%,6.45%,71.46%,,,,
"CN1CCN(c2ccc(-c3cc(N)cc4nccnc34)cn2)CC1 [Example 20, 8-(6-(4-methylpiperazin-1-yl)pyridin-3-yl)quinoxalin-6-amine]",48.1%,45%,12.9%,15.3%,81.61%,,,,
"CCN1CCN(c2ccc(-c3cc(N)cc4nccnc34)cn2)CC1 [Example 21, 8-(6-(4-ethylpiperazin-1-yl)pyridin-3-yl)quinoxalin-6-amine]",66.7%,63.3%,26%,28%,64.90%,,,,
"Nc1cc(-c2ccc(F)nc2)c2nccnc2c1 [Intermediate Compound 4, 8-(6-fluoropyridin-3-yl)quinoxalin-6-amine]",,,,,,53.5%,54.1%,20.9%,19.4%
"CNc1cc(-c2ccc(F)nc2)c2nccnc2c1 [Intermediate Compound 5, 8-(6-fluoropyridin-3-yl)-N-methylquinoxalin-6-amine]",,,,,,13.3%,14.4%,5.67%,3.67%
CCCNc1cc(-c2ccc(F)nc2)c2nccnc2c1 [Intermediate Compound 7],,,,,,24%,22.3%,,
"CC(C)Nc1cc(-c2ccc(F)nc2)c2nccnc2c1 [Intermediate Compound 8, 8-(6-fluoropyridin-3-yl)-N-isopropylquin oxalin-6-amine]",,,,,,66.5%,68.4%,7.38%,7.71%
"CCCCNc1cc(-c2ccc(F)nc2)c2nccnc2c1 [Intermediate Compound 9, N-butyl-8-(6-fluoropyridin-3-yl)quinoxalin-6-amine]",,,,,,24.8%,25.3%,,
"CC(C)CNc1cc(-c2ccc(F)nc2)c2nccnc2c1 [Intermediate Compound 10, 8-(6-Fluoropyridin-3-yl)-N-isobutylquinoxalin-6-amine]",,,,,,43.1%,40.1%,,
"O=C(Nc1cc(Br)c2nccnc2c1)c1ccccn1 [Intermediate Compound 12, N-(8-Bromoquinoxalin-6-yl)picolinamide]",,,,,,100%,96.4%,,
"O=C(Nc1cc(-c2ccc(F)nc2)c2nccnc2c1)c1ccccn1 [Intermediate Compound 14, N-(8-(6-Fluoropyridin-3-yl)quinoxalin-6-yl)picolinamide]",,,,,,92.5%,92.5%,,
"Nc1cc(-c2cnc(Cl)nc2)c2nccnc2c1 [Intermediate Compound 16, 8-(2-chloropyrimidin-5-yl)quinoxalin-6-amine]",,,,,,40.8%,39.1%,13.2%,13.3%
"CCCNc1cc(Br)c2nccnc2c1 [Intermediate Compound 19, 8-Bromo-N-propylquinoxalin-6-amine]",,,,,,27.6%,28.3%,,
"CC(C)Nc1cc(Br)c2nccnc2c1 [Intermediate Compound 20, 8-Bromo-N-isopropylquin oxalin-6-amine]",,,,,,69.1%,73.1%,7.86%,7.51%
"CCCCNc1cc(Br)c2nccnc2c1 [Intermediate Compound 21, 8-Bromo-N-butylquinoxalin-6-amine]",,,,,,20.8%,21.7%,,
"CC(C)CNc1cc(Br)c2nccnc2c1 [Intermediate Compound 22, 8-Bromo-N-isobutylquino xalin-6-amine]",,,,,,49.4%,48.9%,,

# Source: patent publication EP4796538A1, “NOVEL QUINOXALINE COMPOUNDS, MANUFACTURING METHOD THEREOF, AND USES THEREOF” (Gachon University of Industry-Academic Cooperation …, priority 2023, dated 2025)
